Test: xn = mol fraction of the nth substance listed
Conditions: 101.3 kPa, x1 = 0.2

CCCC[N+](CCCC)(CCCC)CCCC.O=S(=O)([O-])O + CCCCCCCCCO
Conditions | electrical conductivity [S/m] | speed of sound [m/s] | viscosity [mPa·s]
298.15 K | 0.0037 | 1411.5 | 137.2
303.15 K | 0.005 | 1395 | 107.9
318.15 K | 0.0102 | 1346.7 | 51.9
323.15 K | 0.0123 | 1331.1 | 41.9
328.15 K | 0.0146 | 1315.7 | 33.79
333.15 K | 0.018 | 1300.3 | 27.74
